Residues, ends and D or L forms follow the SMILES beside them.
What was measured:
trypsin-1 = trypsin-1 (Homo sapiens, UniProt P07477); assay: Cleavage of peptides by purified trypsin-1, MALDI-TOF/TOF; conditions: 25 nM protease, 10 µM peptide; for Incubation time at which the first cleavage or decrease of the full-length peptide was observed, trypsin-1: 37 °C, time points 2, 5, 10, 30 min; for TL disarming (D), Trypsin-1 / TL unmasking (U), Trypsin-1: PAR-based peptides, 37 °C, 2, 5, 10 and 30 min
Text: (§1) Trypsin-like proteases included in the experiments are trypsin-1, -2 and -3, tryptase (Enzo LifeSciences), thrombin (Sigma-Aldrich) and cathepsin G (Sigma-Aldrich). Trypsin-1, -2 and -3 were produced as described by Koistinen et al. and Wu et al.. Two elastase-like enzymes, neutrophil elastase (Enzo LifeSciences, Farmingdale, NY, USA) and pancreatic elastase I (Sigma-Aldrich) were included as well. All enzymes were from human origin except for pancreatic elastase from porcine pancreas.
(§2) Reaction mixtures with purified enzymes were compiled in an identical way. Each mixture contained an equimolar concentration of protease (25 nM based on) and 10 µM peptide of interest and was incubated for 2, 5, 10 and 30 min at 37 °C. Substance P was added as the standard peptide except for the reaction mixtures with substance P or bradykinin as the peptide of interest, where angiotensin II (Bachem) was added.
(§3) The TFA mixtures were thawed on ice and desalted using C18 zip-tips (Merck Millipore®, Burlington, MA, USA) with a capacity of 5 µg protein. Retained peptide fragments were eluted directly on the MALDI target plate. Next, 0.5 µL of a 2.5 mg/mL α-cyano-4-hydroxycinnamic acid (Sigma-Aldrich) matrix solution (in 70% acetonitrile, 0.1% TFA) was spotted on top of the sample. A 6-Peptide mixture Kit (AB Sciex, Framingham, MA, USA) containing bradykinin (2–9), angiotensin I, glu1-fibrinopeptide, ACTH (1–17), ACTH (18–39) and ACTH (7–38) was diluted with matrix and spotted on the plate as well.
(§4) MS and MS/MS data for peptide fragment identification were obtained with a MALDI-TOF/TOF instrument (4800 MALDI TOF/TOF™, Applied Biosystems, Waltham, MA, USA) and instrument parameters were set using 4000 Series Explorer™ software. MS spectra were recorded in positive reflector mode in a mass range from 500 to 4000 Da and laser intensity of 4500–4800 Hz. The spectra were calibrated using the calibration mixture mentioned above to a mass tolerance of 0.1 Da. MS/MS spectra were recorded with high-energy collision-induced dissociation and the laser intensity was increased by 10%. Precursor mass m/z 1570.65 (Glu1-Fibrinopeptide from the calibration mixture) was used to calibrate the MS/MS spectra to a mass tolerance of 0.1 Da.
(§5) MS and MS/MS spectra were processed using DataExplorer™ software and the obtained output files were uploaded in the MS-PEP data analyzer (https://bioit.shinyapps.io/PARs/ accessed 10/08/2020) for peptide fragment identification. Identified fragments were confirmed using the MS/MS spectra and mMass 5.5.0 by Martin Strohalm. The relative intensities of the fragments were calculated as the ratio of the intensity of the peak of interest to the intensity of the peak of the standard peptide.

trypsin-2 = trypsin-2 (Homo sapiens, UniProt P07478); assay: Cleavage of peptides by purified trypsin-2, MALDI-TOF/TOF; conditions: 25 nM protease, 10 µM peptide; for Incubation time at which the first cleavage or decrease of the full-length peptide was observed, trypsin-2: 37 °C, time points 2, 5, 10, 30 min; for TL disarming (D), Trypsin-2 / TL unmasking (U), Trypsin-2: PAR-based peptides, 37 °C, 2, 5, 10 and 30 min
trypsin-2, sequence (P07478 24-247): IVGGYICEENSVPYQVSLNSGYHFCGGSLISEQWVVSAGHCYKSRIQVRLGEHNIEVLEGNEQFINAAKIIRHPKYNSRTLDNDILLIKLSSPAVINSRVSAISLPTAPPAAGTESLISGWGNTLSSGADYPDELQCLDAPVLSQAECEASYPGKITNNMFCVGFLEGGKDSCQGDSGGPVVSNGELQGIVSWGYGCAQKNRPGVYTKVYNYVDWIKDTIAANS
Text: as §1, §2, §3, §4, §5

trypsin-3 = molecular target: T1, trypsin-3 (Homo sapiens, UniProt P35030); assay: Cleavage of peptides by purified trypsin-3, MALDI-TOF/TOF; conditions: 25 nM protease, 10 µM peptide; for TL disarming (D), Trypsin-3 / TL unmasking (U), Trypsin-3: PAR-based peptides, 37 °C, 2, 5, 10 and 30 min
T1 sequence (P35030 1-304): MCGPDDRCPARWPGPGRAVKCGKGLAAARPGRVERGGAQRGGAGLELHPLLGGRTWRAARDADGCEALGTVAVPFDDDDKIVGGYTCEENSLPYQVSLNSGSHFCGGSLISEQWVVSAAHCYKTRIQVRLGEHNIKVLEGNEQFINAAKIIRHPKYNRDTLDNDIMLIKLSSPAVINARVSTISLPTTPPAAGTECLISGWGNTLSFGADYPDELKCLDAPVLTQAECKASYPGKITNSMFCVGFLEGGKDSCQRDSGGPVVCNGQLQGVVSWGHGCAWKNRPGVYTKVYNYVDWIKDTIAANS
Text: as §1, §2, §3, §4, §5

thrombin = thrombin (Homo sapiens, UniProt P00734); assay: Cleavage of peptides by purified thrombin, MALDI-TOF/TOF; conditions: 25 nM protease, 10 µM peptide; for Incubation time at which the first cleavage or decrease of the full-length peptide was observed, thrombin: 37 °C, time points 2, 5, 10, 30 min; for TL disarming (D), Thrombin / TL unmasking (U), Thrombin: PAR-based peptides, 37 °C, 2, 5, 10 and 30 min
Text: as §1, §2, §3, §4, §5

cathepsin G = molecular target: T2, cathepsin G (Homo sapiens, UniProt P08311); assay: Cleavage of peptides by purified cathepsin G, MALDI-TOF/TOF; conditions: 25 nM protease, 10 µM peptide; for TL disarming (D), Cathepsin G / TL unmasking (U), Cathepsin G: PAR-based peptides, 37 °C, 2, 5, 10 and 30 min
T2 sequence (P08311 21-255): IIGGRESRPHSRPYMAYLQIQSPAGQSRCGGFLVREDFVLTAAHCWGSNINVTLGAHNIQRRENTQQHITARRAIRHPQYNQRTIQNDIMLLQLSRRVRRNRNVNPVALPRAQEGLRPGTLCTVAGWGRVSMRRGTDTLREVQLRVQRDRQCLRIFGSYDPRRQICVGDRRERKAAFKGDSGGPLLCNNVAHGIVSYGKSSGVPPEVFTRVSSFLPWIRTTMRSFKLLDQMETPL
Text: as §1
(§6) Reaction mixtures with purified enzymes were compiled in an identical way. […] Substance P was added as the standard peptide except for the reaction mixtures with substance P or bradykinin as the peptide of interest, where angiotensin II (Bachem) was added.
as §3
as §4, with “10%.” for “10%. Precursor mass m/z 1570.65 (Glu1-Fibrinopeptide from the calibration mixture) was used to calibrate the MS/MS spectra to a mass tolerance of 0.1 Da.”
(§7) Identified fragments were confirmed using the MS/MS spectra and mMass 5.5.0 by Martin Strohalm. The relative intensities of the fragments were calculated as the ratio of the intensity of the peak of interest to the intensity of the peak of the standard peptide.

neutrophil elastase = molecular target: T3, neutrophil elastase (Homo sapiens, UniProt P08246); assay: Cleavage of peptides by purified neutrophil elastase, MALDI-TOF/TOF; conditions: 25 nM protease, 10 µM peptide; for TL disarming (D), Neutrophil Elastase / TL unmasking (U), Neutrophil Elastase: PAR-based peptides, 37 °C, 2, 5, 10 and 30 min
T3 sequence (P08246 30-267): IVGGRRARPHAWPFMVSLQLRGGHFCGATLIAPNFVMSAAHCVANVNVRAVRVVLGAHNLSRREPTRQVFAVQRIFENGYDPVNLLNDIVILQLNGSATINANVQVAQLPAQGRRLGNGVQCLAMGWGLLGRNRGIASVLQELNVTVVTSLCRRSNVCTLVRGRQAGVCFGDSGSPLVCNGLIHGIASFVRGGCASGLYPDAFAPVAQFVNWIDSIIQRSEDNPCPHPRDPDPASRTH
Text: as §1, §6, §3
as §4, with “10%.” for “10%. Precursor mass m/z 1570.65 (Glu1-Fibrinopeptide from the calibration mixture) was used to calibrate the MS/MS spectra to a mass tolerance of 0.1 Da.”
as §7

pancreatic elastase I = pancreatic elastase I (Sus scrofa, UniProt P00772); assay: Cleavage of peptides by purified pancreatic elastase, MALDI-TOF/TOF; conditions: 25 nM protease, 10 µM peptide; for TL disarming (D), Pancreatic Elastase / TL unmasking (U), Pancreatic Elastase: PAR-based peptides, 37 °C, 2, 5, 10 and 30 min
pancreatic elastase I, sequence (P00772 27-266): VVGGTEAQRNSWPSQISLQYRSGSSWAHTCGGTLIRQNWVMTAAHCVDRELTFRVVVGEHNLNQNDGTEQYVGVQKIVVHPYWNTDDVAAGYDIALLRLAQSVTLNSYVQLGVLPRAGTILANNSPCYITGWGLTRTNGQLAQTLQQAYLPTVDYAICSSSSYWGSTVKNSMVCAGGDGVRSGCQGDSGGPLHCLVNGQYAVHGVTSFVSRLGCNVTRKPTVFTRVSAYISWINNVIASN
Text: as §1, §6, §3
as §4, with “10%.” for “10%. Precursor mass m/z 1570.65 (Glu1-Fibrinopeptide from the calibration mixture) was used to calibrate the MS/MS spectra to a mass tolerance of 0.1 Da.”
as §7

[1] = 37 °C, time points 2, 5, 10, 30 min

Row | Incubation time at which the first cleavage or decrease of the full-length peptide was observed, trypsin-1 (trypsin-1) [min] | TL disarming (D), Trypsin-1 (trypsin-1) | TL unmasking (U), Trypsin-1 (trypsin-1) | Incubation time at which the first cleavage or decrease of the full-length peptide was observed, trypsin-2 (trypsin-2) [min] | TL disarming (D), Trypsin-2 (trypsin-2) | TL unmasking (U), Trypsin-2 (trypsin-2) | TL disarming (D), Trypsin-3 (trypsin-3) | TL unmasking (U), Trypsin-3 (trypsin-3) | Incubation time at which the first cleavage or decrease of the full-length peptide was observed, thrombin (thrombin) [min] | TL disarming (D), Thrombin (thrombin) | TL unmasking (U), Thrombin (thrombin) | TL disarming (D), Cathepsin G (cathepsin G) | TL unmasking (U), Cathepsin G (cathepsin G) | TL disarming (D), Neutrophil Elastase (neutrophil elastase) | TL unmasking (U), Neutrophil Elastase (neutrophil elastase) | TL disarming (D), Pancreatic Elastase (pancreatic elastase I) | TL unmasking (U), Pancreatic Elastase (pancreatic elastase I) | SMILES | further results
1 | 2 | +++ (ultrafast processing within 2 min) | +++ (ultrafast processing within 2 min) | 2 | ++ (fast processing after 5 min) | +++ (ultrafast processing within 2 min) | + (processing after 10 or 30 min) | − | 2 | − | +++ (ultrafast processing within 2 min) | +++ (ultrafast processing within 2 min) | − | +++ (ultrafast processing within 2 min) | − | +++ (ultrafast processing within 2 min) | − | CC[C@H](C)[C@H](NC(=O)[C@@H]1CCCN1C(=O)[C@H](CC(C)C)NC(=O)[C@@H](NC(=O)[C@@H]1CCCN1C(=O)[C@H](CCCCN)NC(=O)[C@H](C)NC(=O)[C@H](CC(C)C)NC(=O)[C@H](CC(N)=O)NC(=O)[C@H](CC(N)=O)NC(=O)[C@@H](NC(=O)[C@H](CC(=O)O)NC(=O)[C@H](CC(N)=O)NC(=O)[C@H](CCC(=O)O)NC(=O)[C@H](CCSC)NC(=O)CN)[C@@H](C)O)[C@@H](C)O)C(=O)N[C@@H](CCCCN)C(=O)N[C@H](C(=O)N[C@@H](Cc1ccccc1)C(=O)N[C@@H](CCCNC(=N)N)C(=O)NCC(=O)N[C@@H](C)C(=O)N1CCC[C@H]1C(=O)N1CCC[C@H]1C(=O)N[C@@H](CC(N)=O)C(=O)N[C@@H](CO)C(=O)N[C@@H](Cc1ccccc1)C(=O)N[C@@H](CCC(=O)O)C(N)=O)[C@@H](C)O [PAR3-based] (H-GMENDTNNLAKPTLPIKTFRGAPPNSFE-NH2) | 
2 | 2 | − | +++ (ultrafast processing within 2 min) | 2 | − | +++ (ultrafast processing within 2 min) | − | − | > 30 | − | − | − | − | + (processing after 10 or 30 min) | − | − | − | CC[C@H](C)[C@H](NC(=O)[C@H](CC(C)C)NC(=O)[C@H](CO)NC(=O)[C@H](CCCNC(=N)N)NC(=O)CNC(=O)[C@H](CCCCN)NC(=O)[C@H](CO)NC(=O)[C@H](CO)NC(=O)[C@H](CCCNC(=N)N)NC(=O)[C@H](CC(N)=O)NC(=O)[C@@H](NC(=O)CNC(=O)[C@H](CCC(N)=O)NC(=O)[C@@H](NC(=O)[C@@H](N)[C@@H](C)O)[C@@H](C)CC)[C@@H](C)O)C(=O)NCC(=O)N[C@@H](CCCCN)C(=O)N[C@H](C(=O)N[C@@H](CC(=O)O)C(=O)NCC(=O)N[C@H](C(=O)N[C@@H](CO)C(=O)N[C@@H](Cc1c[nH]cn1)C(=O)N[C@H](C(N)=O)C(C)C)[C@@H](C)O)C(C)C [PAR2-based] (H-TIQGTNRSSKGRSLIGKVDGTSHV-NH2) | Incubation time at which the first cleavage or decrease of the full-length peptide was observed, trypsin-3 (trypsin-3; [1]): > 30 min; Incubation time at which the first cleavage or decrease of the full-length peptide was observed, cathepsin G (cathepsin G; [1]): > 30 min; Incubation time at which the first cleavage or decrease of the full-length peptide was observed, neutrophil elastase (neutrophil elastase; [1]): 30 min; Incubation time at which the first cleavage or decrease of the full-length peptide was observed, pancreatic elastase (pancreatic elastase I; [1]): > 30 min

Source: publication PMC8509398, “Proteolytic Cleavage of Bioactive Peptides and Protease-Activated Receptors in Acute and Post-Colitis” (International Journal of Molecular Sciences, 2021)
